Target: T1, Src kinase (Homo sapiens, UniProt P12931)
T1 construct: purchased Upstate Bioteolnology (sic; Upstate Biotechnology); later HMR stock 27597-019E1 #14-117
Test: Phosphorylation assay of Src kinase inhibitors (radiometric, 96 well filter plate)
Type: biochemical
Conditions: duplicates, tested in the range of 400-0.098 µM; 10 µM peptide substrate (FIYGAFKKKKNH2), 5 µM unlabeled ATP, room temperature 30 min; read-out: IC50
Summary of the method: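 Radiometric filter-plate assay: Src kinase (1:100 dilution) was incubated with 10 μM peptide FIYGAFKKK-NH2, 5 μM unlabeled ATP and radiolabeled ATP for 30 min at room temperature. Reactions were stopped with 150 mM H3PO4, the peptide was captured on phosphocellulose and scintillation counted. Ki values were determined for some compounds.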

Molecule	IC50
CCC(C)[C@H](N)C(=O)NC(Cc1ccc(O)cc1)C(=O)NCCCCOc1cc2ccccc2cc1C(=O)NCC(N)=O (stereo partly shown) [Example 19]	12 µM
NC(=O)CNC(=O)c1cc2ccccc2cc1OCCCCNC(=O)[C@@H](N)CC1CCCCC1 [Example 49, 3-[[4-[[2(S)-AMINO-3(CYCLOHEXYL)-1- OXO]PROPYL]AMINO]BUTOXY]- NAPHTHALENE-2-(N-ACETAMIDO)- CARBOXAMIDE]	0.92 µM
NC(=O)CNC(=O)c1cc2ccccc2cc1OCCCCNC(=O)[C@H](N)Cc1ccccc1 [Example 53, 3-[4-[[[2(R)-AMINO-3-PHENYL-1- OXO]PROPYL]AMINO]BUTOXY]- NAPHTHALENE-2-(N-ACETAMIDO)- CARBOXAMIDE]	1.4 µM
NC(=O)CNC(=O)c1cc2ccccc2cc1OCCCCNC(=O)[C@@H](N)Cc1cccc(F)c1 [Example 59, 3-[4-[[[2(S)-AMINO-3-(3-FLUORO- PHENYL)-1-OXO]PROPYL]AMINO]- BUTOXY]-NAPHTHALENE-2-(N- ACETAMIDO)CARBOXAMIDE]	0.49 µM
NC(=O)CNC(=O)c1cc2ccccc2cc1OCCCCNC(=O)[C@H](Cc1ccc(O)cc1)NC(=O)OCc1ccccc1 [Example 18, 3-[4-[[2(S)-(N-BENZYLOXY- CARBONYL)AMINO-3-(4-HYDROXY- PHENYL)-1-OXOPROPYL]AMINO]- BUTOXY]-NAPHTHALENE-2-[N-(2- AMIDOMETHYL)]CARBOXAMIDE]	32 µM
NC(=O)CNC(=O)c1cc2ccccc2cc1OCCCCNC(=O)[C@@H](N)CCc1ccccc1 [Example 36, 3-[[4-[(2(S)-AMINO-3-(BENZYL-1- OXO)PROPYL]AMINO]BUTOXY]- NAPHTHALENE-2-(N- ACETAMIDO)CARBOXAMIDE]	7.9 µM
NC(=O)CNC(=O)c1cc2ccccc2cc1C(=O)NCCCNC(=O)[C@@H](N)Cc1ccc(O)cc1 [Example 89, 3-[[[3-[[[1-OXO-2(S)-AMINO-3- HYDROXYPHENYL)]PROPYL]AMINO]- PROPYL]AMINO]CARBONYL]- NAPHTHALENE-2-ACETAMIDO)- CARBOXAMID]	252 µM
NC(=O)CNC(=O)c1cc2ccccc2cc1OCCCCNC(=O)[C@@H](N)Cc1ccccc1 [Example 14, 3-[4-[[2(S)-AMINO-3-(PHENYL)-1- OXOPROPYL]AMINO]BUTOXY]- NAPHTHALENE-2-[N-(2- AMIDOMETHYL)]CARBOXAMIDE]	0.98 µM
CNC(=O)C(Cc1ccc(-c2noc(C)n2)cc1)C(=O)NCCCCOc1cc2ccccc2cc1C(=O)NCC(N)=O (stereo not shown) [Compound 134, N-(4-{3-[N-(carbamoylmethyl)carbamoyl](2-naphthyloxy)}butyl)-N′-methyl-2-{[4-(5-methyl(1,2,4-oxadiazol-3-yl))phenyl]methyl}propane-1,3-diamide]	76 µM
NC(=O)CC[C@H](N)C(=O)NCCCCOc1cc2ccccc2cc1C(=O)NCC(N)=O [Example 70, 3-[4-[[(1-OXO-2(S)-AMINO-4-AMINO- CARBONYL)BUTYL]AMINO]BUTOXY]- NAPHTHALENE-2-(N-ACETAMIDO)- CARBOXAMIDE]	370 µM
NC(=O)CNC(=O)c1cc2ccccc2cc1OCCCCNC(=O)[C@H](N)Cc1ccc(O)cc1 [Example 56, 3-[4-[[[2(R)-AMINO-3-(4-HYDROXY- PHENYL-1-OXO]PROPYL]AMINO]- BUTOXY]-NAPHTHALENE-2-(N- ACETAMIDO)CARBOXAMIDE]	50 µM
CN(CCCCOc1cc2ccccc2cc1C(=O)NCC(N)=O)C(=O)C(N)Cc1csc2ccccc12 (stereo not shown) [Example 153, 3-[[[4-[3-(BENZOTHIOPHEN-3-YL)-2- AMINO-1-OXO]PROPYL](N-METHYL)- AMINO]BUTOXY]-NAPHTHALENE-2- (N-ACETAMIDO)CARBOXAMIDE]	0.33 µM
CN(C)[C@@H](Cc1ccccc1)C(=O)NCCCCOc1cc2ccccc2cc1C(=O)NCC(N)=O [Example 68]	50 µM
NC(=O)CNC(=O)[C@H](Cc1ccccc1)NCCCCCNC(=O)[C@H](N)Cc1csc2ccccc12 [Example 81, N-[((S)BENZYL)[(AMINO)(CARBONYL)- (METHYL)(AMINO)(CARBONYL)]- METHYL]-5-[[N-[1-OXO-2-AMINO-3- (R)(BENZOTHIOPHEN-3- YL)]PROPYL]AMINO]PENTYLAMINE]	6 µM
NC(=O)CNC(=O)c1cc2ccccc2cc1OCCCCNC(=O)[C@H](Cc1ccc(O)cc1)NC=O [Example 72, 3-[4-[[[1-OXO-2-(N-FORMYLAMINO)-3- (4-HYDROXYPHENYL)]PROPYL]- (S)AMINO]BUTOXY]-NAPHTHALENE- 2-(N-ACETAMIDO)CARBOXAMIDE]	6 µM
NC(=O)CNC(=O)c1cc2ccccc2cc1OCCCCNC(=O)C1NCCC1c1ccc(O)cc1 [Example 22, 3-[N-[[[(3-(S)4-HYDROXYPHENYL)- TETRAHYDROPYRROL-2-YL]- CARBONYL]AMINO]BUTOXY]- NAPHTHALENE-2-[N-(2- AMIDOMETHYL)]CARBOXAMIDE]	11 µM
3-[[4-[[1-OXO-2(S)-AMINO-3-(4- HYDROXYPHENYL)]PROPYL]AMINO]BUTOXY]-7-METHOXY- NAPHTHALENE-2-[N-[[(3-HYDROXY- PROPYLAMINO)-CARBONYL]- METHYL]]CARBOXAMIDE [Example 118]	47 µM
NC(=O)CNC(=O)c1cc2ccccc2cc1OCCCCNC(=O)[C@@H](N)Cc1ccccn1 [Example 47, 3-[[4-[[2(S)-AMINO-3(PYRIDIN-2-YL)-1- OXO]PROPYL]AMINO]BUTOXY]- NAPHTHALENE-2-(N-ACETAMIDO)- CARBOXAMIDE]	17 µM
NC(=O)CNC(=O)c1cc2ccccc2cc1OCCCCNC(=O)[C@@H](N)Cc1csc2ccccc12 [Example 51, 3-[[4-[[2(S)-AMINO-3-(BENZO- THIOPHEN-3-YL)-1-OXO]PROPYL]- AMINO]BUTOXY]-NAPHTHALENE-2- (N-ACETAMIDO)CARBOXAMIDE]	0.1 µM
